PMC12227648, “Chemoproteomics identifies protein ligands for monoacylglycerol lipids” (Communications Chemistry, 2025)

Tests used:
mouse HPCA (Hippocalcin) [1] = molecular target: T1, mouse HPCA (Hippocalcin) (Mus musculus, UniProt P84075); assay: effect on PG-DA photo-labelling, in-gel fluorescence; conditions: HPCA 10 uM, PG-DA 10 uM, 1-PG 0-250 uM, 37 C, 30 min; raises, not competes, probe binding (suggested cooperative)
T1 construct: full-length cDNA in pET45b(+), N-terminal 6x-His tag kept, E. coli BL21 (DE3), HisTrap purified; major ~20 kDa and minor ~25 kDa bands

mouse HPCA (Hippocalcin) [2] = molecular target: T1, mouse HPCA (Hippocalcin); assay: UV photocrosslinking, click rhodamine-azide, in-gel fluorescence; format: binding; conditions: probe 10 uM or 0-250 uM, HPCA 10 uM, 50 mM Tris pH 8.0, 37 C, 6 min UV 365 nm, covalent photo-crosslink
[3] = molecular target: T2, HPCA (N-terminal FLAG tag) in HEK293T lysates (Mus musculus, UniProt P84075); assay: UV photocrosslinking in lysate, click, in-gel fluorescence; format: biochemical; conditions: probe 50 uM, 2 mg/mL HEK293T lysate; covalent photo-crosslink; mock control
T2 construct: N-terminal FLAG tag, transiently overexpressed in HEK293T

## CCCCCCCCCCCCCCCC(=O)OCC(O)CO (stereo not shown) [1-PG]
Mouse HPCA (Hippocalcin) [1]
  effect on PG-DA photo-labelling, in-gel fluorescence: increasing the 1-PG concentration resulted in the heightened binding of the PG-DA probe

## C#CCCCC1(CCCCCCCCCC(=O)OCC(O)CO)N=N1 (stereo not shown) [PG-DA]
Mouse HPCA (Hippocalcin) [2]; Ca2+ surplus versus EDTA compared
  UV photocrosslinking, click rhodamine-azide, in-gel fluorescence: PG-DA bound significantly more to mouse HPCA than the PA-DA probe
[3]
  UV photocrosslinking in lysate, click, in-gel fluorescence: PG-DA probe, but not PA-DA probe, was able to bind to HPCA in HEK293T lysates

## C#CCCCC1(CCCCCCCCCC(=O)O)N=N1 [PA-DA]
Mouse HPCA (Hippocalcin) [2]; weaker control probe
  UV photocrosslinking, click rhodamine-azide, in-gel fluorescence: PG-DA probe binds far more to HPCA than the PA-DA probe
